From patent US12565467B2, “Compounds, compositions, and methods for the treatment of inflammatory, degenerative, and neurodegenerative diseases” (Board of Supervisors of Louisiana State University and …, priority 2015, dated 2026)
“Also recorded” adds a separate entry of the source.

What was measured:
ARPE-19 cells = assay: Oxidative stress induced apoptosis / cell death in ARPE-19 cells; format: cell-based, human; details: stressed ARPE-19 cells treated with 5 μm of 15-LOX-D1 inhibitor PD146176
Description: (§1) FIG. 5. (A) Effect of PD146176 on VLC-PUFA-inhibited apoptosis induced by OS in ARPE-19 cells. […] It is evident that 32:6 and 34:6 LCAF were able to induce a substantial amount (55 and 48% respectively) of neuroprotection compared to PD 146176 (22%) when the stressed cells were treated with 5 μm of 15-LOX-D1 inhibitor. It can be concluded that since PD146176 is the inhibitor of 15-lipooxygenase enzyme, it might be protecting the stressed RPE cells by accumulating neuroprotective agents inside the cells. (B) Comparison of cytoprotective capacities of NPD1, C32:6 and C34:6 VLC-PUFA on oxidative stress-induced apoptosis in 15-LOX-1 cells. Shown here is the comparison of neuroprotection in a 15-LOX-1-deficient cell line under oxidative stress with 32:6 and 34:6 VLC-PUFA along with NPD1. 32:6 and 34:6 LCAF were able to induce neuroprotection (45% and 40% respectively), as compared to oxidative stress (90%) under this condition. (C) Concentration dependent cytoprotection by C32:6 and C34:6 VLC-PUFA in oxidative-stress induced ARPE-19 cells. A concentration (50-500 nM) kinetic of cytoprotection induced by LCAF 32:6 and 34:6 in RPE cell culture under OS was shown here. […] We decided to use 250 nM concentrations of 32:6 and 34:6 LCAF in subsequent experiments. (D) Selected images of alive and dead cells from this study (control, OS, treatment with C32:6).
(§2) FIG. 5—(A) Effect of PD146176 on VLC-PUFA inhibited apoptosis induced by OS in ARPE-19 cells. […] It is evident that 32:6 and 34:6 LCAF were able to induce a substantial amount (55 and 48% respectively) of neuroprotection compared to PD 146176 (22%) when the stressed cells were treated with 5 μm of 15-LOX-D1 inhibitor. It can be concluded that since PD146176 is the inhibitor of 15-lipooxygenase enzyme, it might be protecting the stressed RPE cells by accumulating neuroprotective agents inside the cells. (B) Comparison of cytoprotective capacities of NPD1, C32:6 and C34:6 VLC-PUFA on oxidative stress-induced apoptosis in 15-LOX-1 cells. Shown here is the comparison of neuroprotection in a 15-LOX-1-deficient cell line under oxidative stress with 32:6 and 34:6 VLC-PUFA along with NPD1. 32:6 and 34:6 VLC-PUFA were able to induce neuroprotection (45% and 40% respectively), as compared to oxidative stress (90%) under this condition. (C) Concentration dependent cytoprotection by C32:6 and C34:6 VLC-PUFA in oxidative-stress induced ARPE-19 cells. A concentration (50-500 nM) kinetic of cytoprotection induced by VLC-PUFA 32:6 and 34:6 in RPE cell culture under OS was shown here. […] We decided to use 250 nM concentrations of 32:6 and 34:6 VLC-PUFA in subsequent experiments. (D) Selected images of alive and dead cells from this study (control, OS, treatment with C32:6).

ischemic stroke (MCAo) = assay: Ischemic stroke model, 2 h MCAo, neurological score during 7 days; format: in vivo; details: rat; for activity relative to DHA and NPD1, neurological score (FIG. 12): one hour after 2 h MCAo, 7 days; for in vivo neuroprotective effect (FIG. 12): ICV after 2 hours of MCAo
Description: FIG. 12. […] To test the novel elovanoids the experimental design consisted injecting the compounds into the right cerebral ventricle (5 μg/per rat, ICV), one hour after two hours of an ischemic stroke in rats and following thereafter the neurological behavior (neurological score) during 7 days. The protocol in brief was as follows. The injection was made through a surgically implanted metal canula (Alzet) into the right lateral ventricle. Two days later the right middle cerebral artery (MCA) was occluded for 2 h by means of an intraluminal nylon filament (Belayev et al, Traslational Stroke Research, 2010). Then one hour after the compounds were injected dissolved in sterile cerebrospinal fluid. The occlusion was transient performed as follows. The right common carotid artery was exposed through an incision in the neck and was isolated from surrounding tissues. The distal external carotid artery and pterygopalatine arteries were tied. A 4-cm of 3-0 monofilament nylon suture coated with poly-Lysine was introduced into the internal carotid artery and MCA. The suture position was confirmed by advancing the suture 20-22 mm from the common carotid artery bifurcation. Then, the rats were allowed to awaken from anesthesia and returned to their cages. The degree of stroke injury was assessed by neurological assessment of each rat at 60 min after onset of MCAo. […] After 2 hours of MCA occlusion, the rats were re-anesthetized temperature probes were reinserted and the intraluminal suture was removed. The neck incision was closed with silk sutures, and the animals were allowed free access to food and water. […] The methyl ester ELV2-Me is expected to first be hydrolyzed via the actions of esterases, and it may have a more delayed effect, which may be beneficial for a sustainable long-term treatment.
To test the novel elovanoids the experimental design consisted injecting the compounds into the right cerebral ventricle (5 μg/per rat, ICV), one hour after two hours of an ischemic stroke in rats and following thereafter the neurological behavior (neurological score) during 7 days. The protocol in brief was as follows. The injection was made through a surgically implanted metal canula (Alzet) into the right lateral ventricle. Two days later the right middle cerebral artery (MCA) was occluded for 2 h by means of an intraluminal nylon filament (Belayev et al, Traslational Stroke Research, 2010). Then one hour after the compounds were injected dissolved in sterile cerebrospinal fluid. The occlusion was transient performed as follows. The right common carotid artery was exposed through an incision in the neck and was isolated from surrounding tissues. The distal external carotid artery and pterygopalatine arteries were tied. A 4-cm of 3-0 monofilament nylon suture coated with poly-Lysine was introduced into the internal carotid artery and MCA. The suture position was confirmed by advancing the suture 20-22 mm from the common carotid artery bifurcation. Then, the rats were allowed to awaken from anesthesia and returned to their cages. The degree of stroke injury was assessed by neurological assessment of each rat at 60 min after onset of MCAo. […] After 2 hours of MCA occlusion, the rats were re-anesthetized temperature probes were reinserted and the intraluminal suture was removed. The neck incision was closed with silk sutures, and the animals were allowed free access to food and water. […]

[1] = test system: neuronal cells in primary cultures; assay: NMDA-induced toxicity in neuronal cells in primary culture, MTT assay for cell viability; format: cell-based; details: MK-801 with ELV2; NMDA receptor blocker used as control
Source text: FIG. 11. […] In several neurological and neurodegenerative diseases, such as stroke, epilepsy, status epilepticus, traumatic head injury, etc., as well as ophthalmological diseases, such as glaucoma, an excessive presynaptic release of the excitatory neurotransmitter glutamate takes place. As a consequence, glutamate transporters that function to remove extracellular glutamate from astrocytes and neurons are overwhelmed and the NMDA-type glutamate receptor is over-activated. This receptor is a calcium channel that therefore leads to a flooding of calcium into the postsynaptic cell. The overall phenomena is refer to as excitotoxicity that in turn leads to neuronal damage and cell death. MK801 is a known blocker of this receptor used here as a control.
In several neurological and neurodegenerative diseases, such as stroke, epilepsy, status epilepticus, traumatic head injury, etc., as well as ophthalmological diseases, such as glaucoma, an excessive presynaptic release of the excitatory neurotransmitter glutamate takes place. As a consequence, glutamate transporters that function to remove extracellular glutamate from astrocytes and neurons are overwhelmed and the NMDA-type glutamate receptor is over-activated. This receptor is a calcium channel that therefore leads to a flooding of calcium into the postsynaptic cell. The overall phenomena is refer to as excitotoxicity that in turn leads to neuronal damage and cell death. MK801 is a known blocker of this receptor used here as a control.

[2] = test system: human retinal pigment epithelial (RPE) cells deficient in 15-LOX-D1; assay: Oxidative stress (OS) induced apoptosis / cell death in 15-LOX-1-deficient human RPE cells; format: cell-based
Source text: (§3) FIG. 4. (A) Cytoprotective effects of NPD1 like compounds on OS induced apoptosis. The results shown in this figure compare the cytoprotective capacities of long chain polyunsaturated fatty acids (VLC-PUFA), elovanoids ELV1 and ELV2, and neuroprotectin D1 (NPD1) in human retinal pigment epithelial (RPE) cells deficient in 15-LOX-D1 by measuring the protection of cell deaths induced by oxidative stress (OS) by these compounds. […] (B) Elovanoid precursors protect human retinal pigment epithelial cells deficient in 15-LOX-1, unlike DHA, from oxidative stress conditions.
as §1
as §3, with “Evidence of cytoprotection by 32.6 and 34.6 VLC-PUFA in oxidative-stress induced ARPE-19 cells as detailed in (FIG. 4): (A) Cytoprotective” for “FIG. 4. (A) Cytoprotective”, “capacities of very long chain” for “capacities of long chain”
as §2, with “(D) Selected images of alive and dead cells from this study (control, OS, treatment with C32:6).” left out

SMILES: c1ccc2c(c1)SCc1c-2[nH]c2ccccc12 [PD 146176, reference compound]
- neuroprotection (FIG. 5A) (ARPE-19 cells): 22%

SMILES: CC/C=C\C[C@H](O)\C=C/C=C/C=C/[C@H](O)C/C=C\C/C=C\CCCCCCCCCCCCCCC(=O)OC [ELV2-Me, methyl (16Z,19Z,22R,23E,25E,27Z,29S,31Z)-22,29-dihydroxy-tetratriaconta-16,19,23,25,27,31-hexaenoate]
- activity relative to DHA and NPD1, neurological score (FIG. 12) (ischemic stroke (MCAo); 5 μg/per rat ICV): more active than DHA and NPD1; also recorded: greater in vivo potency than DHA or NPD1
- in vivo neuroprotective effect (FIG. 12) (ischemic stroke (MCAo)): potent in vivo neuroprotective effects

SMILES: C[C@]12N[C@H](Cc3ccccc31)c1ccccc12 [MK-801, reference compound]
- effect of MK-801 on protection, MTT assay for cell viability (FIG. 11B) [1]: potentiates protection

SMILES: CC/C=C\C[C@H](O)\C=C/C=C/C=C/[C@H](O)C/C=C\C/C=C\CCC(=O)O [NPD1, 10R,17S-dihydroxy-docosa-4Z,7Z,11E,13E,15Z,19Z-hexaenoic acid, reference compound]
- protection of cell deaths induced by oxidative stress (FIG. 4A) ([2]; 15-LOX-1-deficient human RPE cells, compared to OS (90%)): 60%
- protection against cell death under oxidative stress conditions (FIG. 4B) ([2]; 15-LOX-D1 cells under oxidative stress): protect against cell death

SMILES: CC/C=C\C[C@H](O)\C=C/C=C/C=C/[C@H](O)C/C=C\C/C=C\CCCCCCCCCCCCCCC(=O)O [ELV2-Na, sodium (16Z,19Z,22R,23E,25E,27Z,29S,31Z)-22,29-dihydroxytetratriaconta-16,19,23,25,27,31-hexaenoate]
- potency of sodium salt versus methyl ester in stroke model (FIG. 12) (ischemic stroke (MCAo); 5 μg/per rat ICV): greater potency
- activity relative to DHA and NPD1, neurological score (FIG. 12) (ischemic stroke (MCAo); 5 μg/per rat ICV): more active than DHA and NPD1; also recorded: greater in vivo potency than DHA or NPD1
- in vivo neuroprotective effect (FIG. 12) (ischemic stroke (MCAo)): potent in vivo neuroprotective effects
